Assay results reported in patent US12285428B2 (IMBRIA PHARMACEUTICALS, INC., priority 2021, dated 2025).

How the values were obtained:
[1] = tested on: patients with stable angina; experiment: Blinded, randomized, controlled Phase 2 study IMB101-006 […]: spontaneously reported renal and urinary findings; assay type: in vivo, human; settings: 200 mg MR BID for 8 weeks, blinded (N=22)
Protocol: (§1) In the early Phase 1 study in healthy volunteers and early Phase 2 studies in patients, there were instances of increased urine volume and increased urinary frequency spontaneously reported. • In the first-in-man study, CIMB8972-101, healthy volunteers were dosed with single doses of IMB-1018972 at 50 mg or 200 mg of the modified release (MR) formulation. Two of 12 subjects [2/12] (16.7%) reported 5 events of pollakiuria at both doses. • In an open label Phase 2 study (IMB101-005 DICE) treating patients with Type 2 Diabetes mellitus and obesity for 8 weeks with 200 mg MR BID, two of 22 patients [2/22] (9.1%) spontaneously reported renal and urinary findings. One patient reported pollakiuria and one patient reported increased nocturnal urinary frequency. • In a blinded, randomized, controlled, Phase 2 study (IMB101-006 […]) treating patients with stable angina for 8 weeks with 200 mg MR BID, one of 22 patients [1/22] (4.5%) spontaneously reported renal and urinary findings. One patient reported polyuria.

healthy subjects [2] = experiment: FIH study, multiple-dose MR part: safety and tolerability; assay type: in vivo, human
Protocol: (§2) AEs were recorded from (first) admission until completion of the follow-up visit. Any clinically significant observations in results of clinical laboratory, 12-lead ECGs, vital signs, or physical examinations were recorded as AEs.
(§3) A treatment-emergent AE (TEAE) was defined as any event not present prior to (the first) administration of the study drug or any event already present that worsened in either severity or frequency following exposure to the study drug.
(§4) At several time points before and after drug administration, subjects were asked nonleading questions to determine the occurrence of AEs. Subjects were asked in general terms about any AEs at regular intervals during the study. In addition, all AEs reported spontaneously during the course of the study were recorded. Details included description of the event, date and time of onset, date and time of end, total duration, severity, relationship to study drug, intervention, seriousness, and outcome. All answers were interpreted by the Investigator and were recorded in the eCRF. All AEs were classified according to the Medical Dictionary for Regulatory Activities (MedDRA; Version 22.0) for AEs.
(§5) The severity of the AEs was rated as mild, moderate, or severe; the relationship between the AEs and the study drug was indicated as none, unlikely, possibly, likely, or definitely. Adverse events assessed as possibly, likely, or definitely were considered related to the study drug; AEs assessed as none or unlikely were considered not related to the study drug.

healthy subjects [3] = experiment: FIH study, MAD part: safety and tolerability; assay type: in vivo, human
Protocol: Subjects received multiple oral doses of an IR formulation of IMB-1018972 or placebo once every 12 hours (q12h) for 14 consecutive days. Each subject participated in only 1 group during the study.
The doses were selected based upon the safety, tolerability, and PK data from the SAD part: • Group B1 multiple oral doses of an IR formulation of 150 mg IMB-1018972 (n=9) or matching placebo (n=3) twice daily (q12h) for 14 days; on Day 14 only a single morning dose was administered • Group B2: multiple oral doses of an IR formulation of 50 mg IMB-1018972 (n=9) or matching placebo (n=3) q12h for 14 days; on Day 14 only a single morning dose was administered
as §2, §3, §4, §5
In the MAD part, a 12-lead ECG was recorded continuously by telemetry from 2 hours before to 12 hours after drug administration on Day 1, and from 2 hours before to 24 hours after drug administration on Day 14.

[4] = tested on: patients with Type 2 Diabetes mellitus and obesity; experiment: Open label Phase 2 study IMB101-005 DICE: spontaneously reported renal and urinary findings; assay type: in vivo, human; settings: 200 mg MR BID for 8 weeks (N=22)
Protocol: as §1

healthy subjects [5] = experiment: FIH study, single-dose MR part: safety and tolerability; assay type: in vivo, human; settings: for ALT, Subject 505: normal range 0-68 IU/L
Protocol: The subjects received a single oral dose of 1 of 4 MR formulations of IMB-1018972 under fasted conditions (an overnight fast of at least 10 hours) on Days 1, 4, 7, and 10 in a fixed order that was the same for all subjects. The MR formulation of IMB-1018972 to be administered on Day 13 under fed conditions was 1 of the 4 MR formulations administered on Days 1, 4, 7, and 10 under fasted conditions. The formulation chosen for administration on Day 13 was the 200 mg 8-hour MR formulation as determined by the Sponsor based on the available safety, tolerability, and PK results of the 4 MR formulations.
as §2, §3, §4, §5
(§6) The following parameters were measured: • Clinical chemistry (serum quantitatively): total bilirubin, alkaline phosphatase, gamma glutamyl transferase, aspartate aminotransferase (AST), alanine aminotransferase (ALT), lactate dehydrogenase, creatinine, urea, total protein, glucose, inorganic phosphate, sodium, potassium, • calcium, and chloride • Hematology (blood quantitatively): leukocytes, erythrocytes, hemoglobin, hematocrit, thrombocytes, partial automated differentiation (lymphocytes, monocytes, eosinophils, basophils, and neutrophils), mean corpuscular volume, mean corpuscular hemoglobin, and mean corpuscular hemoglobin concentration • Coagulation (blood quantitatively): prothrombin time (reported in seconds and as international normalized ratio), activated partial thromboplastin time, and fibrinogen • Urinalysis (urine qualitatively): hemoglobin, urobilinogen, ketones, glucose, and protein • Serology: HBsAg, anti-HCV, and anti-HIV 1 and 2 • Drug and alcohol screen: opiates, methadone, cocaine, amphetamines (including ecstasy), cannabinoids, barbiturates, benzodiazepines, tricyclic antidepressants, and alcohol • Pregnancy test (females only): (3-human chorionic gonadotropin in serum

healthy subjects [6] = experiment: FIH study, whole study: safety and tolerability
Protocol: The study started with the SAD part.
as §2, §3, §4, §5, §6
(§7) Systolic and diastolic blood pressure and pulse were recorded after the subject had been resting for at least 5 minutes in the supine position. These assessments were made using an automated device. Body temperature and respiratory rate were measured subsequently.
(§8) The ECG was recorded using an ECG machine equipped with computer-based interval measurements (with no/minimal disturbance by procedures). The following ECG parameters were recorded: heart rate, PR-interval, QRS-duration, QT-interval, QTcF-interval, and the interpretation of the ECG profile by the Investigator.
Safety and tolerability were assessed through AEs, clinical laboratory, vital signs, ECGs, continuous cardiac monitoring (telemetry), and physical examination findings, and any other parameter that was relevant for safety assessment.

healthy subjects [7] = experiment: FIH study, SAD part (and integrated FE arm): safety and tolerability
Protocol: In Groups A1, A2, A3, and A4, subjects received a single oral dose of an IR formulation of IMB-1018972 or placebo under fasted conditions (an overnight fast of at least 10 hours). […] Each subject participated in only 1 group during the study.
as §2, §3, §4, §5, §6, §7, §8
In the SAD part (not in the second period of the FE group A4, and not in Group A5), a 12-lead ECG was recorded continuously by telemetry from 2 hours before to 24 hours after drug administration on Day 1.

[8] = MAD part, all IMB-1018972 doses (N=18)
[9] = 50 mg 4-hour MR formulation of IMB-1018972, fasted
[10] = 200 mg 4-hour MR formulation of IMB-1018972, fasted
[11] = single doses of 50 mg or 200 mg MR IMB-1018972 (N=12)
[12] = single-dose MR part, IMB-1018972 (N=12)
[13] = single-dose MR part, of 37 TEAEs
[14] = 150 mg IMB-1018972 fasted (fasted-fed group)
[15] = 150 mg IMB-1018972 fed (fasted-fed group)
[16] = SAD part, all IMB-1018972 doses (N=24)

## COc1ccc(CN2CCN(CCOC(=O)c3cccnc3)CC2)c(OC)c1OC [IMB-1018972, 2-[4-[(2,3,4-trimethoxyphenyl)methyl]piperazin-1-yl]ethyl pyridine-3-carboxylate]
[1]
  Patients reporting polyuria: One
  Patients spontaneously reporting renal and urinary findings: 4.5%
Healthy subjects [2]; 200 mg 8-hour MR q12h, fed
  Severity of flushing (2 subjects): mild
Healthy subjects [2]; multiple-dose MR part
  Severity of all TEAEs: mild
Healthy subjects [2]; multiple-dose MR part (N=12)
  Number of TEAEs: 40
  Number of TEAEs considered not related to the study drug: 30
  Number of TEAEs considered related to the study drug: 10
  Number of TEAEs, SOC gastrointestinal disorders: 9
  Number of TEAEs, SOC general disorders and administration site conditions: 4
  Number of TEAEs, SOC musculoskeletal and connective tissue disorders: 4
  Number of TEAEs, SOC nervous system disorders: 9
  Number of TEAEs, SOC renal and urinary disorders (pollakiuria): 4
  Number of drug-related TEAEs of flushing: 2
  Number of drug-related TEAEs of pollakiuria: 4
  Number of drug-related TEAEs, nervous system disorders: 2
  Subjects reporting TEAEs: 100%
  Subjects reporting TEAEs considered not related to the study drug: 75%
  Subjects reporting TEAEs considered related to the study drug: 58.3%
  Subjects reporting TEAEs, SOC gastrointestinal disorders: 41.7%
  Subjects reporting TEAEs, SOC general disorders and administration site conditions: 33.3%
  Subjects reporting TEAEs, SOC musculoskeletal and connective tissue disorders: 33.3%
  Subjects reporting TEAEs, SOC nervous system disorders: 58.3%
  Subjects reporting TEAEs, SOC renal and urinary disorders (pollakiuria): 33.3%
  Subjects reporting drug-related TEAEs of flushing: 16.7%
  Subjects reporting drug-related TEAEs of pollakiuria: 33.3%
  Subjects reporting drug-related TEAEs, nervous system disorders: 16.7%
Healthy subjects [3]; 50 mg IMB-1018972 q12h
  TEAEs of flushing: No TEAEs of flushing
Healthy subjects [3]; 50 mg IMB-1018972 q12h fed
  Number of TEAEs: 21
  Subjects reporting TEAEs: 77.8%
Healthy subjects [3]; 150 mg IMB-1018972 q12h
  Number of TEAEs of flushing (incidental, mild): 7
  Subjects with TEAEs of flushing: 6 subjects
Healthy subjects [3]; 150 mg IMB-1018972 q12h fed
  Number of TEAEs: 14
  Subjects reporting TEAEs: 77.8%
Healthy subjects [3]; 14-day oral q12h 50 mg and 150 mg IMB-1018972, fed
  Tolerability: well tolerated
Healthy subjects [3]; MAD part
  Severity of all TEAEs: mild
Healthy subjects [3]; MAD part, IMB-1018972 (N=18)
  Number of TEAEs considered not related to the study drug: 28
  Number of TEAEs, SOC general disorders and administration site conditions: 7
  Number of TEAEs, SOC musculoskeletal and connective tissue disorders: 7
  Number of TEAEs, SOC vascular disorders (flushing): 7
  Subjects reporting TEAEs considered not related to the study drug: 61.1%
  Subjects reporting TEAEs considered related to the study drug: 33.3%
  Subjects reporting TEAEs, SOC general disorders and administration site conditions: 27.8%
  Subjects reporting TEAEs, SOC musculoskeletal and connective tissue disorders: 27.8%
  Subjects reporting TEAEs, SOC vascular disorders (flushing): 33.3%
Healthy subjects [3]; MAD part, IMB-1018972 (N=18), all flushing at 150 mg q12h
  Number of TEAEs considered related to the study drug: 7
Healthy subjects [3]; [8]
  Number of TEAEs: 35
  Subjects reporting TEAEs: 77.8%
[4]
  Patients reporting increased nocturnal urinary frequency: one
  Patients reporting pollakiuria: One
  Patients spontaneously reporting renal and urinary findings: 9.1%
Healthy subjects [5]; [9]
  Number of TEAEs: 9
  Subjects reporting TEAEs: 50%
Healthy subjects [5]; 50 mg and 200 mg MR formulations (4-hour, 8-hour) fasted, 200 mg 8-hour MR fed, except 1 subject with elevated ALT
  Tolerability: well tolerated
Healthy subjects [5]; [10]
  Number of TEAEs: 11
  Subjects reporting TEAEs: 66.7%
Healthy subjects [5]; Day 2, MR doses on Days 1, 4, 7, 10
  ALT, Subject 505: 31 IU/L
Healthy subjects [5]; Day 5
  ALT, Subject 505: 72 IU/L
Healthy subjects [5]; Day 8
  ALT, Subject 505: 97 IU/L
Healthy subjects [5]; Day 11 (highest)
  ALT, Subject 505: 149 IU/L
Healthy subjects [5]; Day 14
  ALT, Subject 505: 102 IU/L
Healthy subjects [5]; Day 16
  ALT, Subject 505: 84 IU/L
Healthy subjects [5]; follow-up Day 24
  ALT, Subject 505: 42 IU/L
Healthy subjects [5]; [11]
  Number of drug-related TEAEs (events) of pollakiuria (renal and urinary disorders): 5
  Subjects reporting pollakiuria: 16.7%
Healthy subjects [5]; single-dose MR part
  Dose or dissolution time dependency of number and incidence of TEAEs: no apparent dose or dissolution time dependency
  Moderate TEAE of ALT increased (1 subject, withdrawn): relationship to the study drug (Investigator): possibly related
  Number of drug-related TEAEs of ALT increased: 1
  Number of drug-related TEAEs of headache: 1
  Severe TEAEs: No severe TEAEs
  TEAEs of flushing: No TEAEs of flushing
Healthy subjects [5]; single-dose MR part (N=12)
  Number of TEAEs considered not related to the study drug: 30
  Number of TEAEs considered related to the study drug: 7
  Number of TEAEs, SOC gastrointestinal disorders: 5
  Number of TEAEs, SOC general disorders and administration site conditions: 11
  Number of TEAEs, SOC nervous system disorders: 8
  Subjects reporting TEAEs considered not related to the study drug: 83.3%
  Subjects reporting TEAEs considered related to the study drug: 33.3%
  Subjects reporting TEAEs, SOC gastrointestinal disorders: 33.3%
  Subjects reporting TEAEs, SOC general disorders and administration site conditions: 58.3%
  Subjects reporting TEAEs, SOC nervous system disorders: 58.3%
Healthy subjects [5]; single-dose MR part, 200 mg 8-hour MR
  Difference between fasted and fed administration for number and incidence of TEAEs: no clear difference
Healthy subjects [5]; [12]
  Number of TEAEs: 37
  Subjects reporting TEAEs: 83.3%
Healthy subjects [5]; [13]
  Number of TEAEs of mild severity: Thirty-six
  Number of TEAEs of moderate severity: 1
Healthy subjects [5]; throughout the entire period
  AST levels, Subject 505: within normal range
Healthy subjects [6]; 1 SAE influenza like illness, 1 TEAE ALT increased
  Subjects withdrawn from the study due to adverse events: Two
Healthy subjects [6]; IR or MR formulations
  Hemodynamic changes and QTc-interval: no findings of hemodynamic changes, nor changes in the QTc-interval
Healthy subjects [6]; overall
  Dose dependency of number and incidence of TEAEs: no clear dose dependency
Healthy subjects [6]; single and multiple oral doses, IR and MR formulations
  Overall tolerability: generally well tolerated
Healthy subjects [6]; whole study
  Clinical laboratory, vital signs, 12-lead ECG, continuous cardiac monitoring (telemetry), physical examination: no findings of clinical relevance
  Deaths: no deaths
  Severe TEAEs: no severe TEAEs
Healthy subjects [6]; whole study, all treatments
  Number of TEAEs of moderate severity: 12
  Total number of TEAEs: 181
Healthy subjects [7]; 50 mg IMB-1018972 fasted
  Number of TEAEs: 3
  Subjects reporting TEAEs: 50.0%
Healthy subjects [7]; 150 mg IMB-1018972 fasted
  Number of TEAEs: 5
  Subjects reporting TEAEs: 50.0%
Healthy subjects [7]; [14]
  Number of TEAEs: 17
  Subjects reporting TEAEs: 66.7%
Healthy subjects [7]; [15]
  Number of TEAEs: 4
  Subjects reporting TEAEs: 20%
Healthy subjects [7]; 400 mg IMB-1018972 fasted
  Number of TEAEs: 16
  Subjects reporting TEAEs: 100%
Healthy subjects [7]; FE arm of the SAD part, 150 mg
  Effect of dosing under fed conditions on number and incidence of TEAEs: appeared to attenuate
Healthy subjects [7]; SAD part
  Severe TEAEs: No severe TEAEs
Healthy subjects [7]; SAD part, IMB-1018972
  Number of TEAEs of flushing: 6
  Number of TEAEs of flushing of mild severity: 1
  Number of TEAEs of flushing of moderate severity: 5
Healthy subjects [7]; SAD part, IMB-1018972 (N=24)
  Number of TEAEs considered related to the study drug: 21
  Number of TEAEs, SOC gastrointestinal disorders: 9
  Number of TEAEs, SOC general disorders and administration site conditions: 9
  Number of TEAEs, SOC nervous system disorders: 9
  Number of TEAEs, SOC skin and subcutaneous tissue disorders: 4
  Number of TEAEs, SOC vascular disorders: 7
  Number of drug-related TEAEs, nervous system disorders: 5
  Number of drug-related TEAEs, vascular disorders (flushing): 6
  Subjects reporting TEAEs considered related to the study drug: 29.2%
  Subjects reporting TEAEs, SOC gastrointestinal disorders: 16.7%
  Subjects reporting TEAEs, SOC general disorders and administration site conditions: 20.8%
  Subjects reporting TEAEs, SOC nervous system disorders: 29.2%
  Subjects reporting TEAEs, SOC skin and subcutaneous tissue disorders: 16.7%
  Subjects reporting TEAEs, SOC vascular disorders: 29.2%
  Subjects reporting drug-related TEAEs, nervous system disorders: 16.7%
  Subjects reporting drug-related TEAEs, vascular disorders (flushing): 25%
Healthy subjects [7]; [16]
  Number of TEAEs: 45
  Subjects reporting TEAEs: 66.7%
Healthy subjects [7]; SAD part, of 48 TEAEs with IMB-1018972 or placebo
  Number of TEAEs of moderate severity: 11
Healthy subjects [7]; following 50 mg and 150 mg (fasted only group) IMB-1018972
  Drug-related TEAEs: No drug-related TEAEs
Healthy subjects [7]; single 150 mg IMB-1018972, fasted, FE arm
  Subjects who reported flushing: 2 subjects
Healthy subjects [7]; single 400 mg IMB-1018972, fasted
  Subjects who reported flushing: Four
Healthy subjects [7]; single oral IMB-1018972 50, 150, 400 mg fasted and 150 mg fed
  Tolerability: well tolerated
